The values below come from patent US20120059009A1, “ANTI-TUMOR AGENT CONTAINING TEGAFUR-GIMERACIL-OTERACIL POTASSIUM COMBINATION DRUG AND OXALIPLATIN” (TAIHO PHARMACEUTICAL CO., LTD., priority 2009, published 2012).

Like-named read-outs stand apart in the source and are kept apart here.

In data set [1] the test system is human colorectal cancer COL-1. The data set is described as follows: Anti-tumor effect (IR) in human colorectal cancer COL-1 xenograft model. The format is in vivo, male nude mice (BALB/cA-nu). To be noted: in the combination S-1 7 mg/kg, l-OHP 4.2 mg/kg. The protocol:
A fragment (about 2 mm diameter) of human colorectal cancer COL-1 was transplanted into the right axilla of each of male nude mice (BALB/cA-nu, 4-week old, purchased from CLEA Japan, Inc.), and the tumor volume ((longer diameter)×(shorter diameter)^2/2) of the mouse was calculated. The mice were allocatedinto groups so that the average tumor volumes of the groups were adjusted to about 220 mm^3 (8 mice/group). Drug administration was started on the next day after the day of grouping (Day 0). […] TSU-68 was orally administered once a day at a dose of 200 or 400 mg/kg/day from Day 1 to Day 28. A group to which no drug was administered was set as a control group. During drug administration, the tumor volume of each mouse was measured every 3 to 4 days, and the relative tumor volume (RTV) and the anti-tumor effect (IR (%)) of each group were calculated by the formulas below. The statistical significance of difference of the anti-tumor effect between drug-administration group and control group was analyzed by the Student's t-test (both sides) using the average RTV value of these groups. A P value of p<0.05 was considered statistically significant. Furthermore, the advantage in anti-tumor effect (augmentation effect) of the S-1/l-OHP/TSU-68 combination group, with respect to each of the control group, the S-1/l-OHP combination group and the TSU-68 single administration group, was statistically analyzed through the IUT test. […] Relative tumor volume (RTV)=(Tumor volume on Day N)/(Tumor volume on Day 1) [F1] Anti-tumor effect (IR(%))=[1−(RTV of drug-administration group)/(RTV of control group)]×100

The test system of data set [2] is metastatic colorectal cancer patients. In kind it is in vivo, human. As for the experimental part:
The safety of the case where metastatic colorectal cancer patients (9 cases) were subjected to l-OHP and S-1 combination therapy with administration of TSU-68 was examined. In this study, one cycle of the treatment was consisted of 21 days. To each patient, l-OHP was intravenously administered at a dose of 130 mg/m^2 (per body surface area) on Day 1, and S-1 was orally administered, twice a day after meal, at a daily dose (in terms of tegafur) of 70 mg/m^2 (per body surface area) from Day 1 to Day 14. The 7 days from Day 15 to Day 21 were placed as a rest period. TSU-68 was orally administered every day, twice a day after meal, at a daily dose of 400 mg to 800 mg.
The above study was carried out in order to determine the recommended dose (RD) of TSU-68 in the case where l-OHP and S-1 combination therapy, whose efficacy to colorectal cancer had been established, may be carried out in combination with administration of TSU-68, without causing adverse side effects.
The safety was evaluated according to NCI-CTCAE (3rd edition, the National Cancer Institute's Common Terminology Criteria for Adverse Events version 3.0).

In the case of `Cc1[nH]c(/C=C2\C(=O)Nc3ccccc32)c(C)c1CCC(=O)O` [TSU-68, 3-[2,4-dimethyl-5-[[(Z)-2,3-dihydro-2-oxo-1H-indol-3-ylidene]methyl]-1H-pyrrol-3-yl]propanoic acid], in data set [1] (TSU-68 200 mg/kg/day p.o.), the “IR (%) Day 15” value was 47.5%, the “IR (%) Day 22” value was 47.8% and the “IR (%) Day 29” value stood at 49.2%. For the same compound, in data set [1] (TSU-68 400 mg/kg/day p.o.), the “IR (%) Day 15” value amounted to 51.4%, the “IR (%) Day 22” value was found to be 46.3% and the “IR (%) Day 29” value is listed as 52.8%. In addition, in data set [2] (TSU-68 400 or 800 mg daily with l-OHP and S-1), the “anti-tumor effect, 400 mg group versus 800 mg group” value was “almost equivalent”. In data set [2] (human, in vivo, 21 days), the “dose-limiting toxicity (DLT)” value is “dose-limiting toxicity (DLT) including singultus and skin response in the hands and feet (Grade 3) or neutropenia (Grade 2) was observed”; the “recommended dose (RD) of TSU-68 in the combination therapy” value is recorded as 400 mg. The “dose-limiting toxicity (DLT)” value in data set [2] (in vivo) is given as “no DLT was observed”.
